According to the NIST ThermoML archive (doi:10.1021/je0201976):
± gives the expanded uncertainty stated by the source.

Details: Liquid

FC(F)C(F)(F)COC(F)(F)C(F)C(F)(F)F (stereo not drawn) [1,1,1,2,3,3-hexafluoro-3-(2,2,3,3-tetrafluoropropoxy)propane]
Details | Critical pressure [kPa] | Critical temperature [K] | vapor or sublimation pressure [kPa]
– | 2172 ± 82 | 516.21 ± 0.31 | –
285.28 K | – | – | 6.2 ± 1.1
302.65 K | – | – | 12.5 ± 1.3
312.63 K | – | – | 19.8 ± 1.5
322.62 K | – | – | 30.9 ± 1.9
332.69 K | – | – | 45.8 ± 2.5
342.69 K | – | – | 62.9 ± 3.4
352.75 K | – | – | 88.5 ± 4.6
362.72 K | – | – | 129.9 ± 6.7
372.8 K | – | – | 175.3 ± 8.9
382.83 K | – | – | 229 ± 12
392.86 K | – | – | 294.8 ± 15
402.89 K | – | – | 374.7 ± 19
412.92 K | – | – | 469.1 ± 24
422.94 K | – | – | 581.8 ± 29
432.97 K | – | – | 715.5 ± 36
443 K | – | – | 870.9 ± 43
453.03 K | – | – | 1049.5 ± 52
463.06 K | – | – | 1252.9 ± 62
473.08 K | – | – | 1484.4 ± 74
481.14 K | – | – | 1745.4 ± 87
490.97 K | – | – | 2048 ± 100
499.97 K | – | – | 2137.8 ± 400
500.79 K | – | – | 2176.3 ± 400

FC(F)C(F)(F)OCC(F)(F)F [2,2,2-trifluoroethyl 1,1,2,2-tetrafluoroethyl ether]
Details | Critical density [kg/m3] | Critical pressure [kPa] | Critical temperature [K] | vapor or sublimation pressure [kPa]
– | 541 ± 2 | – | – | –
297.29 K | – | – | – | 27.8 ± 1
313.67 K | – | – | – | 55.7 ± 1
322.82 K | – | – | – | 79.9 ± 1
332.69 K | – | – | – | 114.5 ± 1.1
342.88 K | – | – | – | 162 ± 1.1
352.74 K | – | – | – | 221.2 ± 1.2
362.7 K | – | – | – | 296.8 ± 1.3
372.69 K | – | – | – | 391.4 ± 1.5
382.81 K | – | – | – | 510.6 ± 1.8
392.83 K | – | – | – | 651.7 ± 2.1
402.83 K | – | – | – | 821.2 ± 2.6
413.9 K | – | – | – | 1046.2 ± 3.3
422.92 K | – | – | – | 1260.9 ± 3.9
432.91 K | – | – | – | 1536.4 ± 4.8
442.98 K | – | – | – | 1859.3 ± 5.8
452.95 K | – | – | – | 2231 ± 6.9
462.99 K | – | – | – | 2668.5 ± 8.3
463.89 K | – | – | – | 2713.3 ± 8.4
463.94 K | – | – | – | 2715.8 ± 8.4
Direct measurement | – | 2713 ± 4 | – | –
Visual observation in an unstirred cell | – | – | 463.89 ± 0.07 | –

FC(F)C(F)(F)OCC(F)(F)C(F)(F)F [1,1,1,2,2-pentafluoro-3-(1,1,2,2-tetrafluoroethoxy)propane]
Details | Critical density [kg/m3] | Critical pressure [kPa] | Critical temperature [K] | vapor or sublimation pressure [kPa]
– | 550 ± 2 | – | – | –
299.64 K | – | – | – | 17.7 ± 1
332.69 K | – | – | – | 69.8 ± 1
337.7 K | – | – | – | 84 ± 1
342.7 K | – | – | – | 100.3 ± 1
347.73 K | – | – | – | 119.2 ± 1.1
352.74 K | – | – | – | 140.6 ± 1.1
362.76 K | – | – | – | 192.2 ± 1.1
372.78 K | – | – | – | 256.8 ± 1.2
382.81 K | – | – | – | 337.6 ± 1.4
392.84 K | – | – | – | 436.3 ± 1.6
402.86 K | – | – | – | 555.1 ± 1.9
412.89 K | – | – | – | 700 ± 2.2
422.91 K | – | – | – | 868.6 ± 2.7
432.95 K | – | – | – | 1066.1 ± 3.3
442.97 K | – | – | – | 1298 ± 4.1
447.99 K | – | – | – | 1427.4 ± 4.5
453 K | – | – | – | 1567.3 ± 4.9
458.02 K | – | – | – | 1718.4 ± 5.4
464.03 K | – | – | – | 1914.1 ± 6
468.05 K | – | – | – | 2055.2 ± 6.4
473.08 K | – | – | – | 2246.6 ± 7
Direct measurement | – | 2244 ± 5 | – | –
Visual observation in an unstirred cell | – | – | 473.01 ± 0.1 | –

FC(C(F)(F)F)C(F)(F)OCC(F)(F)F (stereo not drawn) [1,1,1,2,3,3-hexafluoro-3-(2,2,2-trifluoroethoxy)propane]
Details | Critical density [kg/m3] | Critical pressure [kPa] | Critical temperature [K] | vapor or sublimation pressure [kPa]
– | 563 ± 2 | – | – | –
302.76 K | – | – | – | 18.7 ± 1
312.63 K | – | – | – | 29.6 ± 1
322.65 K | – | – | – | 44.6 ± 1
332.64 K | – | – | – | 65.7 ± 1
342.72 K | – | – | – | 93.9 ± 1
352.73 K | – | – | – | 131 ± 1.1
362.77 K | – | – | – | 179.1 ± 1.1
372.79 K | – | – | – | 239.7 ± 1.2
382.83 K | – | – | – | 315.9 ± 1.4
392.84 K | – | – | – | 408 ± 1.5
402.89 K | – | – | – | 521.2 ± 1.8
412.92 K | – | – | – | 657.3 ± 2.1
422.94 K | – | – | – | 814.3 ± 2.6
432.97 K | – | – | – | 1004.4 ± 3.1
443 K | – | – | – | 1225.6 ± 3.8
453.02 K | – | – | – | 1480.3 ± 4.6
463.04 K | – | – | – | 1778.5 ± 5.5
473.06 K | – | – | – | 2125 ± 6.6
475.79 K | – | – | – | 2236.1 ± 7
Direct measurement | – | 2233 ± 11 | – | –
Visual observation in an unstirred cell | – | – | 475.74 ± 0.09 | –
